According to US10392368B2, “Pyrazolo and triazolo bicyclic compounds as JAK kinase inhibitors” (THERAVANCE BIOPHARMA R&D IP, LLC, priority 2017, dated 2019):

Key:
JAK1 = target: T1, JAK1 (Homo sapiens, UniProt P23458); assay: Biochemical JAK1 kinase assay (LanthaScreen)
T1 construct: GST; purchased Life Technologies
Procedure, shortened: (§1)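 TR-FRET read-out: terbium anti-pSTAT1 (pTyr701) antibody, 2 nM, with 10 mM EDTA quench, emission ratio 520/495 nm. GST-JAK phosphorylates GFP-STAT1 peptide for 1 h at ambient temperature after 1 h compound pre-incubation. pIC50 from dose-response converted to pKi by Cheng-Prusoff.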

JAK3 = target: T2, JAK3 (Homo sapiens, UniProt P52333); assay: Biochemical JAK3 kinase assay (LanthaScreen); parameters: GST; purchased Life Technologies
T2 sequence (P52333 1-1124): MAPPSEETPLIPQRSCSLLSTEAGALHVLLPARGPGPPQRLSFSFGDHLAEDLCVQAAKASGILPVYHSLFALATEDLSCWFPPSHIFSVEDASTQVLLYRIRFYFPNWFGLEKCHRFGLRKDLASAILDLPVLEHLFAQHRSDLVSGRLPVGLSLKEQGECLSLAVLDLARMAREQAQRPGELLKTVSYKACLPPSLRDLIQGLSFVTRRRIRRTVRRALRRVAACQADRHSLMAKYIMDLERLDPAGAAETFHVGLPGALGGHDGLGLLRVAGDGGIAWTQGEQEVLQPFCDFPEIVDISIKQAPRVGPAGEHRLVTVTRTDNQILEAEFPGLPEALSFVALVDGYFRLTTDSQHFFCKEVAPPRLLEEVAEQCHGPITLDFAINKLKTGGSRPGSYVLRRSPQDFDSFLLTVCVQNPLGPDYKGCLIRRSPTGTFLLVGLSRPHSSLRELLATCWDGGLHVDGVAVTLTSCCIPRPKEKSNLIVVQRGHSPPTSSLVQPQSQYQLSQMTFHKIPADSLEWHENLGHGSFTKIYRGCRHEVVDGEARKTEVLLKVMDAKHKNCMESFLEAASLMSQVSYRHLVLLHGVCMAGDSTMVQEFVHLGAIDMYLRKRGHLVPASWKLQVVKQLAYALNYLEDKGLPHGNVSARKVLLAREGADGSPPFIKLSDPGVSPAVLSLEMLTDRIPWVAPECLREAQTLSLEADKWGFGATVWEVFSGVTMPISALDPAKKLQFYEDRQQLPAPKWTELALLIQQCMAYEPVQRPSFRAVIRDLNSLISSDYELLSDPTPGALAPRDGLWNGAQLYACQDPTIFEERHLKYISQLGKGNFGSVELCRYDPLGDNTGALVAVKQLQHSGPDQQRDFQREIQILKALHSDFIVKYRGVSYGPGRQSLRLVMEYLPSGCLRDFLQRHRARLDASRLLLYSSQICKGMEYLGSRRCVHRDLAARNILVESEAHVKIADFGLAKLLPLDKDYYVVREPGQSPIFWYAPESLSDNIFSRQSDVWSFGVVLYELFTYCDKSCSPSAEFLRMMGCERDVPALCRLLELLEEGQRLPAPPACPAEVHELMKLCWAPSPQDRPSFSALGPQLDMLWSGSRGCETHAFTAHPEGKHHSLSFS
Procedure, shortened: as §1

[1] = tested on: IL-2 stimulated pSTAT5 in Tall-1 T cells; assay: Cellular JAK3 potency assay: inhibition of IL-2 stimulated pSTAT5 in Tall-1 T cells; format: cell-based, human; settings: for Tall-1 (pIC50): IL-2 stimulated pSTAT5, Tall-1 T cells
Procedure, shortened: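 Tall-1 human T cells (45,000/well) in phenol red-free DMEM with 10% FBS were preincubated with compound 1 h at 37 °C, then stimulated with IL-2 (final 300 ng/ml) for 30 min. Lysate pSTAT5 read by AlphaLisa; IC50 from inhibition curves, reported as pIC50 (mean±SD).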

[2] = selectivity JAK3 over JAK1, difference of pKi

T1 sequence (P23458 whole entry): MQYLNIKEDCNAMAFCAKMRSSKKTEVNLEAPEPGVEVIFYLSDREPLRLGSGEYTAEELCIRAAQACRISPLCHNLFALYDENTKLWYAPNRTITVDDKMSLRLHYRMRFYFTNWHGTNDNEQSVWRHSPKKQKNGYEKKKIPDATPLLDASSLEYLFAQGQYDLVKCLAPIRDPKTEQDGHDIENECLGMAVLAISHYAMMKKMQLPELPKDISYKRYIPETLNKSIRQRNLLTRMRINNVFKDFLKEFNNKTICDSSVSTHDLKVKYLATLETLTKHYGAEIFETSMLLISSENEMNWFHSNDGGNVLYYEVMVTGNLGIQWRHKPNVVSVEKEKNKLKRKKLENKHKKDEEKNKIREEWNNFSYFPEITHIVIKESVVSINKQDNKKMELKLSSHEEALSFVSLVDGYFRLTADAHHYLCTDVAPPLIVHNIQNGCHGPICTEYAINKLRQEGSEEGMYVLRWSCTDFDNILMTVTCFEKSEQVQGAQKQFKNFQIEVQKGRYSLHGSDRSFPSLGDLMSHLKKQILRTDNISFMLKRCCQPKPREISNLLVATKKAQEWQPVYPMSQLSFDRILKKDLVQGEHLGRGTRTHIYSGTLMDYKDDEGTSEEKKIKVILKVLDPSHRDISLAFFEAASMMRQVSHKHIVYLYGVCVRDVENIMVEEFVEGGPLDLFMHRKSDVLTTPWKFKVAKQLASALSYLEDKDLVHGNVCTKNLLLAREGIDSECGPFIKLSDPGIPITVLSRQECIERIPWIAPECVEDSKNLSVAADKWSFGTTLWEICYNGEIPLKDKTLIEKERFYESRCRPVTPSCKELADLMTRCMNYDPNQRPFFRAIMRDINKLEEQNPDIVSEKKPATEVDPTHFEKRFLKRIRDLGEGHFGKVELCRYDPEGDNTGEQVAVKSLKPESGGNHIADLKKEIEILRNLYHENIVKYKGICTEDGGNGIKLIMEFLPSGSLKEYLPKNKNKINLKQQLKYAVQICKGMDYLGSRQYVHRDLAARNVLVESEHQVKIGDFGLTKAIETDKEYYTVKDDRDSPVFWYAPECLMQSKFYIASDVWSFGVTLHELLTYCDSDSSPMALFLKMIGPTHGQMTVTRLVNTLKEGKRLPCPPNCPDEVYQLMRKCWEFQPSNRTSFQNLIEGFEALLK

Row | SMILES | JAK 1 (pKi) (JAK1) | JAK 3 (pKi) (JAK3) | JAK3 (pKi)-JAK1 (pKi) (JAK3; [2]) | Tall-1 (pIC50) [1] | Ki (JAK1; read-out: JAK 1 (pKi) (converted)) [nM] | Ki (JAK3; read-out: JAK 3 (pKi) (converted)) [nM] | JAK3 (pKi)-JAK1 (pKi) (JAK3; selectivity: difference of pKi JAK3 and pKi JAK1) | IC50 ([1]; Homo sapiens, TALL-1, IL-2 stimulated pSTAT5 in Tall-1 T cells, read-out: Tall-1 (pIC50) (converted)) [nM]
1 | C=CC(=O)N1CCO[C@@H](C(=O)Nc2cc(-c3ccc(O)c(F)c3)cc3[nH]ncc23)C1 [Compound 13-3] | E (a pKi value of 7 or below (Ki of 100 nM or above)) | A (a pKi value≥10 (Ki≤0.1 nM)) | A (a value of 3 or above) | A (a pIC50 value≥7.5 (IC50≤32 nM)) |  |  |  | 
2 | C=CC(=O)N1CC2(CCC2Oc2nc(-c3ccc(O)c(Cl)c3)nc3[nH]ncc23)C1 (stereo not drawn) [Compound 13-17] | E (a pKi value of 7 or below (Ki of 100 nM or above)) | A (a pKi value≥10 (Ki≤0.1 nM)) | A (a value of 3 or above) | B (a pIC50 value between 6.7 (included) and 7.5 (IC50 between 200 nM and 32 nM)) |  |  |  | 
3 | C=CC(=O)N1CC2(CCC2Oc2nc(-c3ccc(O)c(F)c3)nc3[nH]ncc23)C1 (stereo not drawn) [Compound 13-18] | E (a pKi value of 7 or below (Ki of 100 nM or above)) | B (a pKi value between 9 and 10 (Ki between 1 nM and 0.1 nM)) | A (a value of 3 or above) | B (a pIC50 value between 6.7 (included) and 7.5 (IC50 between 200 nM and 32 nM)) |  |  |  | 
4 | CN(C)C/C=C/C(=O)N1CCC(COc2cc(-c3ccc(O)c(Cl)c3)cc3[nH]ncc23)CC1 [Compound 14-3] | E (a pKi value of 7 or below (Ki of 100 nM or above)) | B (a pKi value between 9 and 10 (Ki between 1 nM and 0.1 nM)) | B (a value of 2.3 to 3) | B (a pIC50 value between 6.7 (included) and 7.5 (IC50 between 200 nM and 32 nM)) |  |  |  | 
5 | CN(C)C/C=C/C(=O)N1CCC(COc2cc(-c3ccc(O)c(F)c3)cc3[nH]ncc23)CC1 [Compound 14-4] | D (a pKi value between 7 and 8 (Ki between 100 nM and 10 nM)) | B (a pKi value between 9 and 10 (Ki between 1 nM and 0.1 nM)) | B (a value of 2.3 to 3) | B (a pIC50 value between 6.7 (included) and 7.5 (IC50 between 200 nM and 32 nM)) |  |  |  | 
6 | C=CC(=O)N1CCC(COc2cc(-c3ccc(O)c(F)c3)cc3[nH]ncc23)CC1 [Compound 14-5] | D (a pKi value between 7 and 8 (Ki between 100 nM and 10 nM)) | B (a pKi value between 9 and 10 (Ki between 1 nM and 0.1 nM)) | B (a value of 2.3 to 3) | A (a pIC50 value≥7.5 (IC50≤32 nM)) |  |  |  | 
7 | C=CC(=O)N1CCC(COc2nc(-c3ccc(O)cc3)cc3[nH]ncc23)CC1 [Compound 14-6] | D (a pKi value between 7 and 8 (Ki between 100 nM and 10 nM)) | A (a pKi value≥10 (Ki≤0.1 nM)) | B (a value of 2.3 to 3) | A (a pIC50 value≥7.5 (IC50≤32 nM)) |  |  |  | 
8 | C=CC(=O)N1CCC(COc2nc(-c3ccc(O)c(Cl)c3)cc3[nH]ncc23)CC1 [Compound 14-7] | D (a pKi value between 7 and 8 (Ki between 100 nM and 10 nM)) | A (a pKi value≥10 (Ki≤0.1 nM)) | B (a value of 2.3 to 3) | A (a pIC50 value≥7.5 (IC50≤32 nM)) |  |  |  | 
9 | C=CC(=O)N1CCC(COc2nc(-c3ccc(O)c(F)c3)cc3[nH]ncc23)CC1 [Compound 14-8] | D (a pKi value between 7 and 8 (Ki between 100 nM and 10 nM)) | A (a pKi value≥10 (Ki≤0.1 nM)) | B (a value of 2.3 to 3) | A (a pIC50 value≥7.5 (IC50≤32 nM)) |  |  |  | 
10 | CN(C)C/C=C/C(=O)N1CCC(COc2nc(-c3ccc(O)c(Cl)c3)cc3[nH]ncc23)CC1 [Compound 14-10] | D (a pKi value between 7 and 8 (Ki between 100 nM and 10 nM)) | B (a pKi value between 9 and 10 (Ki between 1 nM and 0.1 nM)) | C (a value of 1.8 to 2.3) | C (a pIC50 value between 6 and 6.7 (IC50 between 1 μM and 200 nM)) |  |  |  | 
11 | CN(C)C/C=C/C(=O)N1CCC(COc2nc(-c3ccc(O)c(F)c3)cc3[nH]ncc23)CC1 [Compound 14-11] | D (a pKi value between 7 and 8 (Ki between 100 nM and 10 nM)) | B (a pKi value between 9 and 10 (Ki between 1 nM and 0.1 nM)) | B (a value of 2.3 to 3) | C (a pIC50 value between 6 and 6.7 (IC50 between 1 μM and 200 nM)) |  |  |  | 
12 | CN1CCC[C@@H]1/C=C/C(=O)N1CC[C@H](Oc2cc(-c3ccc(O)cc3)cc3[nH]ncc23)C1 [Compound 15, (E)-1-((S)-3-((6-(4-hydroxyphenyl)-1H-indazol-4-yl)oxy)pyrrolidin-1-yl)-3-((R)-1-methylpyrrolidin-2-yl)prop-2-en-1-one] |  |  |  |  | > 100 | 0.1 to 1 | A (a value of 3 or above) | 200 to 1000
